{"source": "PubChem BioAssay AID1845216", "about": "(Molecular Pharmacology Branch, DTP, NCI, 2023)", "tested_on": "SW 982 tumor spheroid viability", "assay": "Anticancer human tumor SW 982 cell line growth inhibition;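 as to all read-outs here: spheroids exposed to compound for 7 days before readout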", "conditions": "spheroids with HUVEC and MSC; for viability, T/C: stronger effect = lower value", "in_short": "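Single agents and combinations were tested on spheroids built from tumor cells plus HUVEC and hMSC, at half-log dilutions starting at or near clinical Cmax, else 10 microM; final DMSO 0.25% (v/v).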", "note": "Values joined by “and” are separate entries in the source; they are usually repeats but may differ in a detail not shown here. Identical values can stand only once.", "data": [{"smiles": "O=C(c1cc(Cc2n[nH]c(=O)c3ccccc23)ccc1F)N1CCN(C(=O)C2CC2)CC1", "note": "+ CC[C@@]1(O)C(=O)OCc2c1cc1n(c2=O)Cc2cc3c(CN(C)C)c(O)ccc3nc2-1", "values": [{"measurement": "IC50", "setting": "curve of first compound, second compound 0.003 µM", "result": 23700, "unit": "nM"}, {"measurement": "IC50", "setting": "curve of first compound, second compound 0.00949 µM", "result": 22500, "unit": "nM"}, {"measurement": "IC50", "setting": "curve of first compound, second compound 0.03 µM", "result": 17700, "unit": "nM"}, {"measurement": "IC50", "setting": "curve of first compound, second compound 0.0949 µM", "result": 10500, "unit": "nM"}, {"measurement": "IC50", "setting": "curve of first compound, second compound 0.3 µM", "result": "< 94.9", "unit": "nM"}, {"measurement": "viability, T/C", "setting": "second compound 0.003 µM, first compound 0.0949 µM", "result": 83.3, "unit": "%"}, {"measurement": "viability, T/C", "setting": "second compound 0.003 µM, first compound 0.3 µM", "result": 80.5, "unit": "%"}, {"measurement": "viability, T/C", "setting": "second compound 0.003 µM, first compound 0.949 µM", "result": 84.1, "unit": "%"}, {"measurement": "viability, T/C", "setting": "second compound 0.003 µM, first compound 3 µM", "result": 78.9, "unit": "%"}, {"measurement": "viability, T/C", "setting": "second compound 0.003 µM, first compound 9.49 µM", "result": 66.6, "unit": "%"}, {"measurement": "viability, T/C", "setting": "second compound 0.003 µM, first compound 30 µM", "result": 45.7, "unit": "%"}, {"measurement": "viability, T/C", "setting": "second compound 0.00949 µM, first compound 0.0949 µM", "result": 85.6, "unit": "%"}, {"measurement": "viability, T/C", "setting": "second compound 0.00949 µM, first compound 0.3 µM", "result": 83.8, "unit": "%"}, {"measurement": "viability, T/C", "setting": "second compound 0.00949 µM, first compound 0.949 µM", "result": 87.1, "unit": "%"}, {"measurement": "viability, T/C", "setting": "second compound 0.00949 µM, first compound 3 µM", "result": 78, "unit": "%"}, {"measurement": "viability, T/C", "setting": "second compound 0.00949 µM, first compound 9.49 µM", "result": 73.7, "unit": "%"}, {"measurement": "viability, T/C", "setting": "second compound 0.00949 µM, first compound 30 µM", "result": 42.2, "unit": "%"}, {"measurement": "viability, T/C", "setting": "second compound 0.03 µM, first compound 0.0949 µM", "result": 72.6, "unit": "%"}, {"measurement": "viability, T/C", "setting": "second compound 0.03 µM, first compound 0.3 µM", "result": 76.3, "unit": "%"}, {"measurement": "viability, T/C", "setting": "second compound 0.03 µM, first compound 0.949 µM", "result": 81.8, "unit": "%"}, {"measurement": "viability, T/C", "setting": "second compound 0.03 µM, first compound 3 µM", "result": 75.8, "unit": "%"}, {"measurement": "viability, T/C", "setting": "second compound 0.03 µM, first compound 9.49 µM", "result": 60.5, "unit": "%"}, {"measurement": "viability, T/C", "setting": "second compound 0.03 µM, first compound 30 µM", "result": 41.1, "unit": "%"}, {"measurement": "viability, T/C", "setting": "second compound 0.0949 µM, first compound 0.0949 µM", "result": 63.6, "unit": "%"}, {"measurement": "viability, T/C", "setting": "second compound 0.0949 µM, first compound 0.3 µM", "result": 66.3, "unit": "%"}, {"measurement": "viability, T/C", "setting": "second compound 0.0949 µM, first compound 0.949 µM", "result": 59.7, "unit": "%"}, {"measurement": "viability, T/C", "setting": "second compound 0.0949 µM, first compound 3 µM", "result": 60.2, "unit": "%"}, {"measurement": "viability, T/C", "setting": "second compound 0.0949 µM, first compound 9.49 µM", "result": 49.6, "unit": "%"}, {"measurement": "viability, T/C", "setting": "second compound 0.0949 µM, first compound 30 µM", "result": 39.4, "unit": "%"}, {"measurement": "viability, T/C", "setting": "second compound 0.3 µM, first compound 0.0949 µM", "result": 36.2, "unit": "%"}, {"measurement": "viability, T/C", "setting": "second compound 0.3 µM, first compound 0.3 µM", "result": 43.4, "unit": "%"}, {"measurement": "viability, T/C", "setting": "second compound 0.3 µM, first compound 0.949 µM", "result": 43.3, "unit": "%"}, {"measurement": "viability, T/C", "setting": "second compound 0.3 µM, first compound 3 µM", "result": 39.6, "unit": "%"}, {"measurement": "viability, T/C", "setting": "second compound 0.3 µM, first compound 9.49 µM", "result": 31.1, "unit": "%"}, {"measurement": "viability, T/C", "setting": "second compound 0.3 µM, first compound 30 µM", "result": 17.6, "unit": "%"}]}, {"smiles": "CNCc1ccc(-c2cc(-c3nc(-c4ccc(S(=O)(=O)C(C)C)cc4)cnc3N)on2)cc1", "note": "+ Cn1nnc2c(C(N)=O)ncn2c1=O", "values": [{"measurement": "IC50", "setting": "curve of first compound, second compound 1 µM", "result": 219, "unit": "nM"}, {"measurement": "IC50", "setting": "curve of first compound, second compound 3.16 µM", "result": 228, "unit": "nM"}, {"measurement": "IC50", "setting": "curve of first compound, second compound 10 µM", "result": 160, "unit": "nM"}, {"measurement": "IC50", "setting": "curve of first compound, second compound 31.6 µM", "result": 109, "unit": "nM"}, {"measurement": "IC50", "setting": "curve of first compound, second compound 100 µM", "result": 53.4, "unit": "nM"}, {"measurement": "viability, T/C", "setting": "second compound 1 µM, first compound 0.00949 µM", "result": 95.6, "unit": "%"}, {"measurement": "viability, T/C", "setting": "second compound 1 µM, first compound 0.03 µM", "result": 89.3, "unit": "%"}, {"measurement": "viability, T/C", "setting": "second compound 1 µM, first compound 0.0949 µM", "result": 75.1, "unit": "%"}, {"measurement": "viability, T/C", "setting": "second compound 1 µM, first compound 0.3 µM", "result": 38, "unit": "%"}, {"measurement": "viability, T/C", "setting": "second compound 1 µM, first compound 0.949 µM", "result": 28.6, "unit": "%"}, {"measurement": "viability, T/C", "setting": "second compound 1 µM, first compound 3 µM", "result": 14.7, "unit": "%"}, {"measurement": "viability, T/C", "setting": "second compound 3.16 µM, first compound 0.00949 µM", "result": 92.9, "unit": "%"}, {"measurement": "viability, T/C", "setting": "second compound 3.16 µM, first compound 0.03 µM", "result": 87.2, "unit": "%"}, {"measurement": "viability, T/C", "setting": "second compound 3.16 µM, first compound 0.0949 µM", "result": 68.8, "unit": "%"}, {"measurement": "viability, T/C", "setting": "second compound 3.16 µM, first compound 0.3 µM", "result": 39.5, "unit": "%"}, {"measurement": "viability, T/C", "setting": "second compound 3.16 µM, first compound 0.949 µM", "result": 29.8, "unit": "%"}, {"measurement": "viability, T/C", "setting": "second compound 3.16 µM, first compound 3 µM", "result": 9.23, "unit": "%"}, {"measurement": "viability, T/C", "setting": "second compound 10 µM, first compound 0.00949 µM", "result": 72.7, "unit": "%"}, {"measurement": "viability, T/C", "setting": "second compound 10 µM, first compound 0.03 µM", "result": 71.9, "unit": "%"}, {"measurement": "viability, T/C", "setting": "second compound 10 µM, first compound 0.0949 µM", "result": 60, "unit": "%"}, {"measurement": "viability, T/C", "setting": "second compound 10 µM, first compound 0.3 µM", "result": 35.3, "unit": "%"}, {"measurement": "viability, T/C", "setting": "second compound 10 µM, first compound 0.949 µM", "result": 26.7, "unit": "%"}, {"measurement": "viability, T/C", "setting": "second compound 10 µM, first compound 3 µM", "result": 8.84, "unit": "%"}, {"measurement": "viability, T/C", "setting": "second compound 31.6 µM, first compound 0.00949 µM", "result": 69, "unit": "%"}, {"measurement": "viability, T/C", "setting": "second compound 31.6 µM, first compound 0.03 µM", "result": 67.7, "unit": "%"}, {"measurement": "viability, T/C", "setting": "second compound 31.6 µM, first compound 0.0949 µM", "result": 51.6, "unit": "%"}, {"measurement": "viability, T/C", "setting": "second compound 31.6 µM, first compound 0.3 µM", "result": 31.7, "unit": "%"}, {"measurement": "viability, T/C", "setting": "second compound 31.6 µM, first compound 0.949 µM", "result": 23.1, "unit": "%"}, {"measurement": "viability, T/C", "setting": "second compound 31.6 µM, first compound 3 µM", "result": 8.96, "unit": "%"}, {"measurement": "viability, T/C", "setting": "second compound 100 µM, first compound 0.00949 µM", "result": 63.5, "unit": "%"}, {"measurement": "viability, T/C", "setting": "second compound 100 µM, first compound 0.03 µM", "result": 58.8, "unit": "%"}, {"measurement": "viability, T/C", "setting": "second compound 100 µM, first compound 0.0949 µM", "result": 43.5, "unit": "%"}, {"measurement": "viability, T/C", "setting": "second compound 100 µM, first compound 0.3 µM", "result": 28.1, "unit": "%"}, {"measurement": "viability, T/C", "setting": "second compound 100 µM, first compound 0.949 µM", "result": 22.7, "unit": "%"}, {"measurement": "viability, T/C", "setting": "second compound 100 µM, first compound 3 µM", "result": 5.36, "unit": "%"}]}, {"smiles": "Cn1ncnc1[C@H]1c2n[nH]c(=O)c3cc(F)cc(c23)N[C@@H]1c1ccc(F)cc1", "values": [{"measurement": "viability, T/C", "setting": "compound 0.00949 µM", "result": "80.9% and 90% and 94.8%"}, {"measurement": "viability, T/C", "setting": "compound 0.03 µM", "result": "93.7% and 94.9% and 97.7%"}, {"measurement": "viability, T/C", "setting": "compound 0.0949 µM", "result": "88.3% and 90.8% and 91.5%"}, {"measurement": "viability, T/C", "setting": "compound 0.3 µM", "result": "77.9% and 87.9% and 79.2%"}, {"measurement": "viability, T/C", "setting": "compound 0.949 µM", "result": "82.8% and 80.2% and 81.8%"}, {"measurement": "viability, T/C", "setting": "compound 3 µM", "result": "75.7% and 82.9% and 62.9%"}, {"measurement": "IC50", "setting": "curve of compound", "result": "> 3000", "unit": "nM"}]}]}
